Literature values, collected in patent US20060140985A1, “Lansoprazole formulations and related processes and methods” (priority 2003, published 2006).
Like-named read-outs stand apart in the source and are kept apart here.

Experiments:
gastric acid secretion = conditions: in vivo
[1] = not given; remark: listed apart in the source
[2] = not given; remark: listed apart in the source

- metabolism (liver): extensively metabolized in the liver
- plasma elimination half-life (plasma): less than two hours
- solubility ([1]; acetonitrile): slightly soluble
- solubility ([1]; dichloromethane): slightly soluble
- solubility ([1]; dimethylformamide): freely soluble
- solubility ([1]; ethanol): sparingly soluble
- solubility ([1]; ether): very slightly soluble
- solubility ([1]; ethyl acetate): slightly soluble
- solubility ([1]; hexane): practically insoluble
- solubility ([1]; methanol): soluble
- solubility ([1]; water): practically insoluble
SMILES: Cc1c(OCC(F)(F)F)ccnc1C[S+]([O-])c1nc2ccccc2[nH]1 (centres unmarked) [Lansoprazole, 2-[[[3-methyl-4 (2,2,2-trifluoroethoxy)-2-pyridyl]methyl]sulfinyl]benzimidazole]
- duration of acid inhibitory effect (gastric acid secretion): more than twenty-four hours
- degradation in aqueous solution ([2]; aqueous solution, pH dependence): degrades in aqueous solution, with the rate of degradation increasing with decreasing pH
- stability when exposed to light ([2]; light): stable when exposed to light for up to two months
